Publication PMC12040169 (PLOS Biology, 2025)

Test: in vitro
Conditions: human, hela cells, % viability

Structure (SMILES)	viability at 28.5 h, 10 µM
Fc1ccccc1CN1CCC(Oc2cncc(OCCN3CCOCC3)n2)C1 (stereo not shown) [CBK084479]	94.9%
Clc1ccc(CN2CCC(Oc3cncc(OCCN4CCOCC4)n3)C2)cc1 (stereo not shown) [CBK084480]	90.9%
O=[N+]([O-])c1ccc(CN2CCC(Oc3cncc(OCCN4CCOCC4)n3)C2)cc1 (stereo not shown) [CBK084485]	95.2%
c1cc2c(cc1CN1CCC(Oc3cncc(OCCN4CCOCC4)n3)C1)OCO2 (stereo not shown) [CBK084487]	96.7%
NC(=O)CN1CCC(Oc2cncc(OCCN3CCOCC3)n2)C1 (stereo not shown) [CBK084488]	111%
Cc1cccc(C)c1NC(=O)CN1CCC(Oc2cncc(OCCN3CCOCC3)n2)C1 (stereo not shown) [CBK084489]	95.5%
CCN(CC)C(=O)CN1CCC(Oc2cncc(OCCN3CCOCC3)n2)C1 (stereo not shown) [CBK084490]	101%
CCOC(=O)CN1CCC(Oc2cncc(OCCN3CCOCC3)n2)C1 (stereo not shown) [CBK084491]	89.3%
c1ccc(OCCN2CCC(Oc3cncc(OCCN4CCOCC4)n3)C2)cc1 (stereo not shown) [CBK084499]	113%
c1ccc2c(CCN3CCC(Oc4cncc(OCCN5CCOCC5)n4)C3)c[nH]c2c1 (stereo not shown) [CBK084500]	100%
c1ccc2cc(CCN3CCC(Oc4cncc(OCCN5CCOCC5)n4)C3)ccc2c1 (stereo not shown) [CBK084503]	92.7%
Nc1ncc(-c2ccc(C(=O)O)cc2)nc1-c1ccc(C(=O)N2CCOCC2)cc1 [CBK084518]	90.8%
CC(C)(C)c1ccc(-c2cnc(N)c(-c3ccc(C(=O)N4CCOCC4)cc3)n2)cc1 [CBK084543A]	98.2%
COc1ccc(Br)c(C(=O)Nc2[nH]nc(O)c2Cc2c(Cl)cccc2Cl)c1 [CBK084554]	111%
CC[C@@H]1CCCCN1C(=O)c1ccc(Cl)c(C)c1 [CBK084565]	91.6%
COc1ccc2[nH]c3c(c2c1)CCN(CC(C)O)C31CCN(CCOc2ccccc2)C1 (stereo not shown) [CBK084612T]	73%

Structure (SMILES)	viability at 28.5 h, 10 µM
COc1ccc([C@H](NC(=O)C2CCN(C(=O)OCc3ccccc3)CC2)c2ccccc2C)cn1 [CBK084639]	92.9%
O=C(CN(C(=O)CNC(=O)c1cccs1)c1cccc(C(F)(F)F)c1)NC1CCCCC1 [CBK084697]	94.5%
O=C(NCC(=O)N(c1cccc(C(F)(F)F)c1)C(C(=O)NCc1ccco1)c1ccccc1F)c1ccco1 (stereo not shown) [CBK084740]	96%
COc1ccc(Cn2nnnc2C(CC(C)C)N2CCC(C(N)=O)CC2)cc1 (stereo not shown) [CBK084783]	90%
O=C(NC1CCCCC1)NC1CCN(Cc2nnnn2Cc2ccco2)CC1 [CBK085007]	100%
CC(=O)Nc1ccc(NC2SC(=O)N(c3ccccc3)C2=O)cc1 (stereo not shown) [CBK085110]	88.4%
Cc1cc(NS(=O)(=O)c2ccc(NC(=O)C(c3ccccc3)c3ccccc3)cc2)no1 [CBK085112]	94%
O=C(NC(Cc1c[nH]c2ccccc12)C(=O)NC1CCCCC1)OCc1ccccc1 (stereo not shown) [CBK085144]	89%
CCc1nnc(NS(=O)(=O)c2ccc(NCc3ccccc3O)cc2)s1 [CBK085149]	113%
Cc1[nH]n(-c2nc3ccccc3o2)c(=O)c1Cc1c(Cl)cccc1Cl [CBK085382]	96.5%
Fc1ccc2[nH]c3c(c2c1)CCNC31CCN(CCOc2ccccc2)C1 (stereo not shown) [CBK085404T]	98%
Brc1cn2ccnc2c(N2CCCC2)n1 [CBK085449]	117%
Cc1cc(COc2cc(N3CCCNCC3)ncn2)no1 [CBK085462]	95.4%
c1nc(OCCN2CCOCC2)cc(N2CCCNCC2)n1 [CBK085466]	86.2%
c1ccc2c(c1)OCC(COc1nccc(N3CCCNCC3)n1)O2 (stereo not shown) [CBK085471]	89.8%
Cc1nc2ccc(NC(=O)Nc3ccnc4cccnc34)cc2o1 [CBK085498]	90%

Same assay, conditions: human, hela cells, % viability, bulk resorufin, single well

Structure (SMILES)	viability at 28.5 h, 10 µM
CCOC(=O)N1CCC2(CC1)Oc1ccc(Cl)cc1O2 [CBK084590]	94.2%
CCOC(=O)N1CCC2(CC1)Oc1ccc(-c3cccc4ncccc34)cc1O2 [CBK085454]	99.8%
